Target: T1, recombinant human Syk (GST-hSyk fusion protein) (Homo sapiens, UniProt P43405)
T1 construct: purchased Carna Biosciences 08-176
Assay: Homogeneous Time-Resolved Fluorescence (HTRF) assay for the recombinant human Syk enzyme
Type: biochemical
Conditions: IC50 class; 10-dose titration, 25 μM ATP; read-out: rhSYK Activity
In short: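 IC50 came from a four-parameter fit over ten doses, 10 μM to 0.508 nM, with HTRF read-out (Eu-anti-pTyr antibody, SA-APC, EDTA stop, 30 min). The enzyme, 5 pM GST-hSyk, met compound for 10 min, then phosphorylated 250 nM biotin-peptide with 25 μM ATP and 5 mM Mg for 45 min at room temperature, pH 7.5.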

IC50 [nM]	SMILES
≤ 100	Cc1cc(Nc2nccc(C(F)(F)F)n2)cc(-c2cnn(Cc3ccnnc3)c2)c1 [Example 3.32, N-{3-methyl-5-[1-(pyridazin-4-ylmethyl)-1H-pyrazol-4-yl]phenyl}-4-(trifluoromethyl)pyrimidin-2-amine]
≤ 100	Cc1cc(Nc2nccc(C(F)(F)F)n2)cc(-c2cnn(CC3CNC(=O)O3)c2)c1 (stereo not shown) [Example 3.33, 5-{[4-(3-methyl-5-{[4-(trifluoromethyl)pyrimidin-2-yl]amino}-phenyl)-1H-pyrazol-1-yl]methyl}-1,3-oxazolidin-2-one]
≤ 100	CCC(C(=O)O)n1cc(-c2cc(C)cc(Nc3nccc(C(F)(F)F)n3)c2)cn1 (stereo not shown) [Example 3.34, 2-[4-(3-methyl-5-{[4-(trifluoromethyl)pyrimidin-2-yl]amino}-phenyl)-1H-pyrazol-1-yl]butanoic acid]
≤ 100	Cc1cc(Nc2nccc(C(F)(F)F)n2)cc(-c2cnn(C(C)C(=O)O)c2)c1 (stereo not shown) [Example 3.35, 2-[4-(3-methyl-5-{[4-(trifluoromethyl)pyrimidin-2-yl]amino}-phenyl)-1H-pyrazol-1-yl]propanoic acid]
≤ 100	Cc1cc(Nc2nccc(C(F)(F)F)n2)cc(-c2cnn(CC(N)=O)c2)c1 [Example 3.37, 2-[4-(3-methyl-5-{[4-(trifluoromethyl)pyrimidin-2-yl]amino}-phenyl)-1H-pyrazol-1-yl]acetamide]
≤ 100	Cc1cc(Nc2nccc(C(F)(F)F)n2)cc(-c2cnn(CS(N)(=O)=O)c2)c1 [Example 3.39, 1-[4-(3-methyl-5-{[4-(trifluoromethyl)pyrimidin-2-yl]amino}-phenyl)-1H-pyrazol-1-yl]methane-sulfonamide]
≤ 100	Cc1cc(Nc2nccc(C(F)(F)F)n2)cc(-c2cnn(C[C@H](O)CO)c2)c1 [Example 3.42, (2S)-3-[4-(3-methyl-5-{[4-(trifluoromethyl)pyrimidin-2-yl]amino}phenyl)-1H-pyrazol-1-yl]propane-1,2-diol]
≤ 100	Cc1cc(Nc2nccc(C(F)(F)F)n2)cc(-c2cnn(CC3CN(C)C(=O)O3)c2)c1 (stereo not shown) [Example 3.46]
≤ 100	Cc1cc(Nc2nccc(C(F)(F)F)n2)cc(-c2cnn(C[C@@H](O)CC#N)c2)c1 [Example 3.47, (3S)-3-hydroxy-4-[4-(3-methyl-5-{[4-(trifluoromethyl)pyrimidin-2-yl]amino}-phenyl)-1H-pyrazol-1-yl]butanenitrile]
≤ 100	COC(=O)CCCn1cc(-c2cc(C)cc(Nc3nccc(C(F)(F)F)n3)c2)cn1 [Example 3.49, methyl 4-[4-(3-methyl-5-{[4-(trifluoromethyl)-pyrimidin-2-yl]amino}-phenyl)-1H-pyrazol-1-yl]butanoate]
≤ 100	Cc1cc(Nc2nccc(C(F)(F)F)n2)cc(-c2cnn(C3CCC(C(=O)O)c4ccccc43)c2)c1 (stereo not shown) [Example 3.51, 4-[4-(3-methyl-5-{[4-(trifluoromethyl)pyrimidin-2-yl]amino}phenyl)-1H-pyrazol-1-yl]-1,2,3,4-tetrahydronaphthalene-1-carboxylic acid]
≤ 100	Cc1cc(Nc2nccc(C(F)(F)F)n2)cc(-c2cnn(CC(O)c3ccc(C(=O)O)cc3)c2)c1 (stereo not shown) [Example 3.53, 4-{1-hydroxy-2-[4-(3-methyl-5-{[4-(trifluoromethyl)pyrimidin-2-yl]amino}-phenyl)-1H-pyrazol-1-yl]ethyl}benzoic acid]
≤ 100	COC(=O)c1ccc(C(O)Cn2cc(-c3cc(C)cc(Nc4nccc(C(F)(F)F)n4)c3)cn2)cc1 (stereo not shown) [Example 3.54, methyl 4-{1-hydroxy-2-[4-(3-methyl-5-{[4-(trifluoromethyl)pyrimidin-2-yl]amino}phenyl)-1H-pyrazol-1-yl]ethyl}benzoate]
≤ 100	O=C1NCC(Cn2cc(-c3cccc(Nc4cc(C(F)F)ccn4)n3)cn2)O1 (stereo not shown) [Example 3.84, 5-{[4-(6-{[4-(difluoromethyl)pyridin-2-yl]amino}pyridin-2-yl)-1H-pyrazol-1-yl]methyl}-1,3-oxazolidin-2-one]
≤ 100	Cc1cc(Nc2cc(C(C)(F)F)ccn2)nc(-c2cnn(CC3CNC(=O)O3)c2)c1 (stereo not shown) [Example 3.85, 5-{[4-(6-{[4-(1,1-difluoroethyl)pyridin-2-yl]amino}-4-methylpyridin-2-yl)-1H-pyrazol-1-yl]methyl}-1,3-oxazolidin-2-one]
≤ 100	Cc1cc(Nc2cc(C(C)(F)F)ccn2)nc(-c2cnn(CC3CNC(=O)O3)c2)c1 (stereo not shown) [Example 3.86, 5-{[4-(6-{[4-(1,1-difluoroethyl)pyridin-2-yl]amino}-4-methylpyridin-2-yl)-1H-pyrazol-1-yl]methyl}-1,3-oxazolidin-2-one]
≤ 100	Cc1cc(Nc2cc(C(F)F)ccn2)nc(-c2cnn(C(C)C3CNC(=O)O3)c2)c1 (stereo not shown) [Example 3.88, 5-{1-[4-(6-{[4-(difluoromethyl)pyridin-2-yl]amino}-4-methylpyridin-2-yl)-1H-pyrazol-1-yl]ethyl}-1,3-oxazolidin-2-one]
≤ 100	Cc1cc(Nc2nccc(C(F)F)n2)cc(-c2cnn(CC3CC(=O)NC34CC4)c2)c1 (stereo not shown) [Example 3.90, 7-{[4-(3-{[4-(difluoromethyl)pyrimidin-2-yl]amino}-5-methylphenyl)-1H-pyrazol-1-yl]methyl}-4-azaspiro[2.4]heptan-5-one]
≤ 100	Cc1cc(Nc2nccc(C(F)F)n2)cc(-c2cnn(C(C)C3CNC(=O)O3)c2)c1 (stereo not shown) [Example 3.91, 5-{1-[4-(3-{[4-(difluoromethyl)pyrimidin-2-yl]amino}-5-methylphenyl)-1H-pyrazol-1-yl]ethyl}-1,3-oxazolidin-2-one]
≤ 100	Cc1cc(Nc2nccc(C(F)F)n2)cc(-c2cnn(CC3OC(=O)NC34CC4)c2)c1 (stereo not shown) [Example 3.92, 7-{[4-(3-{[4-(difluoromethyl)pyrimidin-2-yl]amino}-5-methylphenyl)-1H-pyrazol-1-yl]methyl}-6-oxa-4-azaspiro[2.4]heptan-5-one]

Continued, molecule first:

SMILES	IC50 [nM]
CCOC(=O)C(C)n1cc(-c2cc(C)cc(Nc3nccc(C(F)(F)F)n3)c2)cn1 (stereo not shown) [Example 3.30, ethyl 2-[4-(3-methyl-5-{[4-(trifluoromethyl)-pyrimidin-2-yl]amino}phenyl)-1H-pyrazol-1-yl]propanoate]	≤ 100
Cc1cc(Nc2nccc(C(F)(F)F)n2)cc(-c2cnn(CCCO)c2)c1 [Example 3.31, 3-[4-(3-methyl-5-{[4-(trifluoromethyl)pyrimidin-2-yl]amino}-phenyl)-1H-pyrazol-1-yl]propan-1-ol]	≤ 100
Cc1cc(Nc2nccc(C(F)(F)F)n2)cc(-c2cnn(CCO)c2)c1 [Example 3.36, 2-[4-(3-methyl-5-{[4-(trifluoromethyl)-pyrimidin-2-yl]amino}-phenyl)-1H-pyrazol-1-yl]ethanol]	≤ 100
Cc1cc(Nc2nccc(OCCO)n2)cc(-c2cnn(CCC(N)=O)c2)c1 [Example 3.38, 3-[4-(3-{[4-(2-hydroxyethoxy)pyrimidin-2-yl]amino}-5-methylphenyl)-1H-pyrazol-1-yl]propanamide]	≤ 100
COc1ccnc(Nc2cc(C)cc(-c3cnn(CCC(N)=O)c3)c2)n1 [Example 3.40, 3-(4-{3-[(4-methoxypyrimidin-2-yl)amino]-5-methylphenyl}-1H-pyrazol-1-yl)propanamide]	≤ 100
Cc1cc(Nc2nccc(C(F)(F)F)n2)cc(-c2cnn(C[C@@H](O)CO)c2)c1 [Example 3.41, (2R)-3-[4-(3-methyl-5-{[4-(trifluoromethyl)pyrimidin-2-yl]amino}-phenyl)-1H-pyrazol-1-yl]propane-1,2-diol]	≤ 100
Cc1cc(Nc2nccc(C(F)(F)F)n2)cc(-c2cnn(CCS(C)(=O)=O)c2)c1 [Example 3.48, N-(3-methyl-5-{1-[2-(methylsulfonyl)ethyl]-1H-pyrazol-4-yl}phenyl)-4-(trifluoromethyl)pyrimidin-2-amine]	≤ 100
Cc1cc(Nc2nccc(C(F)(F)F)n2)cc(-c2cnn(CCCC(=O)O)c2)c1 [Example 3.50, 4-[4-(3-methyl-5-{[4-(trifluoromethyl)-pyrimidin-2-yl]amino}-phenyl)-1H-pyrazol-1-yl]butanoic acid]	≤ 100
COC(=O)C1CCC(n2cc(-c3cc(C)cc(Nc4nccc(C(F)(F)F)n4)c3)cn2)c2ccccc21 (stereo not shown) [Example 3.52, methyl 4-[4-(3-methyl-5-{[4-(trifluoromethyl)pyrimidin-2-yl]amino}-phenyl)-1H-pyrazol-1-yl]-1,2,3,4-tetrahydronaphthalene-1-carboxylate]	100 to 1000
Cc1cc(Nc2cc(C(F)F)ccn2)nc(-c2cnn(CC3CNC(=O)O3)c2)c1 (stereo not shown) [Example 3.81, 5-{[4-(6-{[4-(difluoromethyl)pyridin-2-yl]amino}-4-methylpyridin-2-yl)-1H-pyrazol-1-yl]methyl}-1,3-oxazolidin-2-one]	≤ 100
O=C1NCC(Cn2cc(-c3cccc(Nc4cc(C(F)F)ccn4)n3)cn2)O1 (stereo not shown) [Example 3.82, 5-{[4-(6-{[4-(difluoromethyl)pyridin-2-yl]amino}pyridin-2-yl)-1H-pyrazol-1-yl]methyl}-1,3-oxazolidin-2-one]	≤ 100
Cc1cc(Nc2cc(C(F)F)ccn2)nc(-c2cnn(CC3CNC(=O)O3)c2)c1 (stereo not shown) [Example 3.83, 5-{[4-(6-{[4-(difluoromethyl)pyridin-2-yl]amino}-4-methylpyridin-2-yl)-1H-pyrazol-1-yl]methyl}-1,3-oxazolidin-2-one]	≤ 100
Cc1cc(Nc2cc(C(F)F)ccn2)nc(-c2cnn(C(C)C3CNC(=O)O3)c2)c1 (stereo not shown) [Example 3.87, 5-{1-[4-(6-{[4-(difluoromethyl)pyridin-2-yl]amino}-4-methylpyridin-2-yl)-1H-pyrazol-1-yl]ethyl}-1,3-oxazolidin-2-one]	≤ 100
Cc1cc(Nc2nccc(C(F)F)n2)cc(-c2cnn(CC3CC(=O)NC34CC4)c2)c1 (stereo not shown) [Example 3.89, 7-{[4-(3-{[4-(difluoromethyl)pyrimidin-2-yl]amino}-5-methylphenyl)-1H-pyrazol-1-yl]methyl}-4-azaspiro[2.4]heptan-5-one]	≤ 100

From US9242984B2, “Pyrazolyl derivatives as Syk inhibitors” (Merck Sharp & Dohme Corp., priority 2012, dated 2016)
